This note sets out measurements from patent US20180177890A1, “LIGAND-CYTOTOXIC DRUG CONJUGATE, PREPARATION METHOD THEREOF, AND USE THEREOF” (priority 2015, published 2018).

For one test, the system named is HepG2 tumor cells. Description: In vitro tumor cell proliferation inhibition test (CCK-8), HepG2. In kind it is cell-based. Particulars: Homo sapiens, HepG2, 76 hours incubation. As to the method: (§1) The objective of this experiment is to test the in vitro inhibition effect of the formula (D) according to the present invention on the proliferation of HepG2 tumor cells (human hepatocellular carcinoma cells, Chinese Academy of Sciences cell bank, No. #TCHu 72) and A549 tumor cells (human lung adenocarcinoma, Chinese Academy of Sciences cell bank, No. #TCHu150). The cells were treated with different concentrations of the compound in vitro. After 76 hours incubation, the cell proliferation was detected by CCK-8 reagent (Cell Counting Kit-8, Dojindo, No. CK04), and the activity of the compound in vitro was evaluated according to the IC50 value.
(§2) The following is an example of a method for in vitro proliferation inhibition test of HepG2 cells for the purpose of exemplifying the test of the compounds according to the present invention for the proliferation inhibitory activity on tumor cells in vitro. This method is also applicable to, but not limited to, the in vitro proliferation inhibition tests on other tumor cells.
HepG2 cells in logarithmic growth phase were washed with PBS (phosphate buffer, ThermoFisher) once, and added with 2-3 ml trypsin (0.25% trypsin-EDTA (1×), Gibico, Life Technologies) to digest for 2-3 min. Then, 10-15 ml of cell culture medium (DMEM/F12 medium, Invitrogen; 10% (v/v)) was added after the cells were completely digested. The digested HepG2 cells were eluted, and centrifuged at 1000 rpm for 3 min. The supernatant was discarded, and then 10-20 ml of cell culture medium were added to resuspend the cells to prepare a single cell suspension.
The HepG2 single cell suspension was mixed and the cell density was adjusted to 6×10^4 cells/ml with cell culture medium. The density-adjusted cell suspension was mixed uniformly and added to a 96-well cell culture plate at 100 μl/well. The plates were incubated in a 5% CO2 incubator at 37° C. for 18-20 hours.
(§3) The compound was dissolved with DMSO (dimethylsulfoxide, Shanghai Titan Technology Co., Ltd.) to prepare a storage solution having an initial concentration of 10 mM.
(§4) 10 μl of 10 mM compound was added to the wells of the first column of a U-shaped bottom 96-well plate (sample plate 1), and 90 μl of DMSO was added to each compound sample well of the first column, i.e., the stock solution was diluted 10 times as the starting point. Then, 3-fold gradient dilutions were performed, with each compound concentration […]. The diluent was DMSO solution. 60 μl of 100% DMSO was added to 12th column and 20 μl of 1 mM positive drug control was added to 11th column.
(§5) In a new U-shaped bottom 96-well plate (sample plate 2), each sample from the sample plate 1 was diluted 20 times with the complete medium. Then, in another new U-shaped bottom 96-well plate (sample plate 3), each well sample from the sample plate 2 was subjected to a final 10-fold dilution.
(§6) After the cell pre-culture was completed, the 96-well cell culture plate was removed and the supernatant was discarded. Each sample dilution in the 96-well sample plate 3 was successively added to a 96-well cell culture plate at 100 μl/well. Each compound sample was tested in duplicate at each concentration. […] After completion of the loading operation, the 96-well cell culture plate was incubated at 37° C. for about 76 hours in a 5% CO2 incubator.
(§7) The 96-well cell culture plate was taken and CCK-8 was added to each well at […]. The cell culture plate was gently pat and mixed for more than 10 times and incubated at 37° C. for 2 hours in a 5% CO2 incubator.
(§8) The 96-well cell culture plate was taken and placed in a microplate reader (PerkinElmer, VICTOR 3) and the absorbance at 450 nm was measured using the microplate reader.
(§9) Data was analyzed with Microsoft Excel and Graphpad Prism 5.

In a further test the test system is A549 tumor cells. Description: In vitro tumor cell proliferation inhibition test (CCK-8), A549. In kind it is cell-based. Conditions: Homo sapiens, A549, 76 hours incubation. As to the method:
as §1, §2, §3, §4, §5, §6, §7, §8
In accordance with the above procedure, the inhibition activity of the compound according to the present invention on the proliferation of A549 tumor cells in vitro was tested. The cell culture medium was also DMEM/F12.
as §9

Numbered stars: 1 amine (or outer) side, 2 acyl side, 3 side chain; on linkers, the order of the positions; unused ones are H or OH. Square brackets hold non-standard residues; d marks the D form. Peptide text beside a SMILES is read from it. X1 = CO[C@H]([C@@H](C)C(=O)[*:2])[C@@H]1C[C@@H]2C[C@@H]2N1[*:1]; X3 = CO[C@H]([C@@H](C)C(=O)[*:2])[C@@H]1CC[C@H](C)N1[*:1]; X5 = CO[C@H]([C@@H](C)C(=O)[*:2])[C@@H]1C[C@H](F)CN1[*:1]; X2 = CO[C@H]([C@@H](C)C(=O)[*:2])[C@@H]1CC2(CC2)CN1[*:1]; X4 = C=C1C[C@@H]([C@H](OC)[C@@H](C)C(=O)[*:2])N([*:1])C1; Dolaproine = CO[C@@H]([C@@H]1CCCN1)[C@@H](C)C(=O)O; Dil = CC[C@H](C)[C@H](NC)[C@@H](CC(=O)O)OC; Phe(2-Cl) = N[C@@H](Cc1ccccc1Cl)C(=O)O; Phe(4-F) = N[C@@H](Cc1ccc(F)cc1)C(=O)O; Phe(4-Me) = Cc1ccc(C[C@H](N)C(=O)O)cc1; Phe(2-F) = N[C@@H](Cc1ccccc1F)C(=O)O; NMeV = CN[C@H](C(=O)O)C(C)C

As for `CC[C@H](C)[C@@H]([C@@H](CC(=O)N1[C@H]2C[C@H]2C[C@H]1[C@H](OC)[C@@H](C)C(=O)N[C@@H](Cc1ccccc1)C(=O)O)OC)N(C)C(=O)[C@@H](NC(=O)[C@@H](NC)C(C)C)C(C)C` [Compound 1, (S)-2-((2R,3R)-3-((1S,3S,5S)-2-((3R,4S,5S)-4-((S)—N,3-dimethyl-2-((S)-3-methyl-2-(methylamino)butanamido)butanamido)-3-methoxy-5-methylheptanoyl)-2-azabicyclo[3.1.0]hexan-3-yl)-3-methoxy-2-methylpropanamido)-3-phenylpropanoic acid] (H-[NMeV]V[Dil][X1]F-OH), the IC50 was determined as 8.6 nM in the test with HepG2 tumor cells and 12.8 nM with A549 tumor cells. For the compound `CC[C@H](C)[C@@H]([C@@H](CC(=O)N1[C@H]2C[C@H]2C[C@H]1[C@H](OC)[C@@H](C)C(=O)N[C@@H](Cc1ccccc1Cl)C(=O)O)OC)N(C)C(=O)[C@@H](NC(=O)[C@@H](NC)C(C)C)C(C)C` [Compound 2, (S)-3-(2-chlorophenyl)-2-((2R,3R)-3-((1S,3S,5S)-2-((3R,4S,5S)-4-((S)—N,3-dimethyl-2-((S)-3-methyl-2-(methylamino)butanamido)butanamido)-3-methoxy-5-methylheptanoyl)-2-azabicyclo[3.1.0]hexan-3-yl)-3-methoxy-2-methylpropanamido)propanoic acid] (H-[NMeV]V[Dil][X1][Phe(2-Cl)]-OH), the IC50 turned out to be 4.12 nM with HepG2 tumor cells and 2.33 nM in the test on A549 tumor cells. For the compound `CC[C@H](C)[C@@H]([C@@H](CC(=O)N1[C@@H](C)CC[C@H]1[C@H](OC)[C@@H](C)C(=O)N[C@@H](Cc1ccccc1)C(=O)O)OC)N(C)C(=O)[C@@H](NC(=O)[C@@H](NC)C(C)C)C(C)C` [Compound 3, (S)-2-((2R,3R)-3-((2S,5S)-1-((3R,4S,5S)-4-((S)—N,3-dimethyl-2-((S)-3-methyl-2-(methylamino)butanamido)butanamido)-3-methoxy-5-methylheptanoyl)-5-methylpyrrolidin-2-yl)-3-methoxy-2-methylpropanamido)-3-phenylpropanoic acid] (H-[NMeV]V[Dil][X3]F-OH), the IC50 stood at 9.33 nM in the test with HepG2 tumor cells and 16.2 nM in the test with A549 tumor cells. In the case of `CC[C@H](C)[C@@H]([C@@H](CC(=O)N1[C@H]2C[C@H]2C[C@H]1[C@H](OC)[C@@H](C)C(=O)N[C@@H](Cc1ccccc1F)C(=O)O)OC)N(C)C(=O)[C@@H](NC(=O)[C@@H](NC)C(C)C)C(C)C` [Compound 7, (S)-2-((2R,3R)-3-((1S,3S,5S)-2-((3R,4S,5S)-4-((S)—N,3-dimethyl-2-((S)-3-methyl-2-(methylamino)butanamido)butanamido)-3-methoxy-5-methylheptanoyl)-2-azabicyclo[3.1.0]hexan-3-yl)-3-methoxy-2-methylpropanamido)-3-(2-fluorophenyl)propanoic acid] (H-[NMeV]V[Dil][X1][Phe(2-F)]-OH), the IC50 stood at 283 nM with HepG2 tumor cells and 776 nM in the test with A549 tumor cells. The matching figures for `C=C1C[C@@H]([C@H](OC)[C@@H](C)C(=O)N[C@@H](Cc2ccccc2)C(=O)O)N(C(=O)C[C@@H](OC)[C@H]([C@@H](C)CC)N(C)C(=O)[C@@H](NC(=O)[C@@H](NC)C(C)C)C(C)C)C1` [Compound 9, (S)-2-((2R,3R)-3-((S)-1-((3R,4S,5S)-4-((S)—N,3-dimethyl-2-((S)-3-methyl-2-(methylamino)butanamido)butanamido)-3-methoxy-5-methylheptanoyl)-4-methylenepyrrolidin-2-yl)-3-methoxy-2-methylpropanamido)-3-phenylpropanoic acid] (H-[NMeV]V[Dil][X4]F-OH): 55 nM and 114 nM. The like results for `CC[C@H](C)[C@@H]([C@@H](CC(=O)N1CC2(CC2)C[C@H]1[C@H](OC)[C@@H](C)C(=O)N[C@@H](Cc1ccccc1F)C(=O)O)OC)N(C)C(=O)[C@@H](NC(=O)[C@@H](NC)C(C)C)C(C)C` [Compound 11, (S)-2-((2R,3R)-3-((S)-5-((3R,4S,5S)-4-((S)—N,3-dimethyl-2-((S)-3-methyl-2-(methylamino)butanamido)butanamido)-3-methoxy-5-methylheptanoyl)-5-azaspiro[2.4]heptan-6-yl)-3-methoxy-2-methylpropanamido)-3-(2-fluorophenyl)propanoic acid] (H-[NMeV]V[Dil][X2][Phe(2-F)]-OH) were, in that order, 6.6 nM and 27.2 nM. The matching figures for `CC[C@H](C)[C@@H]([C@@H](CC(=O)N1CC2(CC2)C[C@H]1[C@H](OC)[C@@H](C)C(=O)N[C@@H](Cc1ccccc1)C(=O)O)OC)N(C)C(=O)[C@@H](NC(=O)[C@@H](NC)C(C)C)C(C)C` [Compound 13, (S)-2-((2R,3R)-3-((S)-5-((3R,4S,5S)-4-((S)—N,3-dimethyl-2-((S)-3-methyl-2-(methylamino)butanamido)butanamido)-3-methoxy-5-methylheptanoyl)-5-azaspiro[2.4]heptan-6-yl)-3-methoxy-2-methylpropanamido)-3-phenylpropanoic acid] (H-[NMeV]V[Dil][X2]F-OH): 11.7 nM and 30.2 nM.

On to `CC[C@H](C)[C@@H]([C@@H](CC(=O)N1[C@H]2C[C@H]2C[C@H]1[C@H](OC)[C@@H](C)C(=O)N[C@@H](Cc1ccc(C)cc1)C(=O)O)OC)N(C)C(=O)[C@@H](NC(=O)[C@@H](NC)C(C)C)C(C)C` [Compound 15, (S)-2-((2R,3R)-3-((1S,3S,5S)-2-((3R,4S,5S)-4-((S)—N,3-dimethyl-2-((S)-3-methyl-2-(methylamino)butanamido)butanamido)-3-methoxy-5-methylheptanoyl)-2-azabicyclo[3.1.0]hexan-3-yl)-3-methoxy-2-methylpropanamido)-3-(p-tolyl)propanoic acid] (H-[NMeV]V[Dil][X1][Phe(4-Me)]-OH), for which the IC50 in the test on HepG2 tumor cells amounted to 47.5 nM; in the test on A549 tumor cells it was 75.5 nM.

Turning to `CC[C@H](C)[C@@H]([C@@H](CC(=O)N1C[C@@H](F)C[C@H]1[C@H](OC)[C@@H](C)C(=O)N[C@@H](Cc1ccccc1)C(=O)O)OC)N(C)C(=O)[C@@H](NC(=O)[C@@H](NC)C(C)C)C(C)C` [Compound 44, (S)-2-((2R,3R)-3-((2S,4S)-1-((3R,4S,5S)-4-((S)—N,3-dimethyl-2-((S)-3-methyl-2-(methylamino)butanamido)butanamido)-3-methoxy-5-methylheptanoyl)-4-fluoropyrrolidin-2-yl)-3-methoxy-2-methylpropanamido)-3-phenylpropanoic acid] (H-[NMeV]V[Dil][X5]F-OH), half-maximal inhibition in the test with A549 tumor cells (IC50) was put at 179 nM. With `CC[C@H](C)[C@@H]([C@@H](CC(=O)N1CCC[C@H]1[C@H](OC)[C@@H](C)C(=O)N[C@@H](Cc1ccc(F)cc1)C(=O)O)OC)N(C)C(=O)[C@@H](NC(=O)[C@@H](NC)C(C)C)C(C)C` [Compound 46, (S)-2-((2R,3R)-3-((S)-1-((3R,4S,5S)-4-((S)—N,3-dimethyl-2-((S)-3-methyl-2-(methylamino)butanamido)butanamido)-3-methoxy-5-methylheptanoyl)pyrrolidin-2-yl)-3-methoxy-2-methylpropanamido)-3-(4-fluorophenyl)propanoic acid] (H-[NMeV]V[Dil][Dolaproine][Phe(4-F)]-OH), in the test with A549 tumor cells, the half-maximal inhibitory concentration (IC50) was 106 nM.

As a reminder, the IC50 is the concentration that gives 50% inhibition. Higher therefore signals weaker potency.
